# PubChem BioAssay AID228 (DTP/NCI, 2004)
# Where “and” joins values, the source holds several entries; their conditions need not be identical. Equal entries are not always repeated. Inconclusive results are not listed.
# Test system: BDF1 mice, Friend leukemia sc, tumor weight T/C
# Assay: NCI In Vivo Anticancer Drug Screen. Data for tumor model Friend Virus Leukemia (Solid) (subcutaneous) in B6D2F1 (BDF1) mice
# Conditions: endpoint: mean tumor weight, higher = larger tumour
# Description: The antitumor activity of compounds was measured in mice bearing transplantable tumors. Survival or tumor size were measured and the results are expressed as the measurement made in the treated group (T) divided by the measurement made in the vehicle treated control group (C). The tumor model used in this assay is Friend Virus Leukemia (Solid) (subcutaneous) in B6D2F1 (BDF1) mice
# [1] = dose: 50.0 mg/kg/injection, schedule: Q01DX011 (ip), vehicle: carboxymethylcellulose (CMC)
# [2] = dose: 100.0 mg/kg/injection, schedule: Q01DX011 (ip), vehicle: carboxymethylcellulose (CMC)
# [3] = dose: 4.0 mg/kg/injection, schedule: Q01DX011 (ip), vehicle: carboxymethylcellulose (CMC)
# [4] = dose: 6.0 mg/kg/injection, schedule: Q01DX011 (ip), vehicle: carboxymethylcellulose (CMC)
# [5] = dose: 8.0 mg/kg/injection, schedule: Q01DX011 (ip), vehicle: carboxymethylcellulose (CMC)
# [6] = dose: 1.0 mg/kg/injection, schedule: Q01DX011 (ip), vehicle: carboxymethylcellulose (CMC)
# [7] = dose: 43.0 mg/kg/injection, schedule: Q01DX011 (ip), vehicle: carboxymethylcellulose (CMC)
# [8] = dose: 75.0 mg/kg/injection, schedule: Q01DX011 (ip), vehicle: carboxymethylcellulose (CMC)
# [9] = dose: 37.5 mg/kg/injection, schedule: Q01DX011 (ip), vehicle: carboxymethylcellulose (CMC)
structure (smiles),measurement,setting,value
CSc1ncnc2nc[nH]c12,T/C,"dose: 5.7 mg/kg/injection, schedule: Q01DX011 (ip), vehicle: carboxymethylcellulose (CMC)",155 % of control
same,T/C,"dose: 11.5 mg/kg/injection, schedule: Q01DX011 (ip), vehicle: carboxymethylcellulose (CMC)",115 % of control
same,T/C,"dose: 22.5 mg/kg/injection, schedule: Q01DX011 (ip), vehicle: carboxymethylcellulose (CMC)",59 % of control and 81 % of control
same,T/C,"dose: 45.0 mg/kg/injection, schedule: Q01DX011 (ip), vehicle: carboxymethylcellulose (CMC)",35 % of control and 42 % of control
same,T/C,"dose: 90.0 mg/kg/injection, schedule: Q01DX011 (ip), vehicle: carboxymethylcellulose (CMC)",39 % of control
CCCC(Sc1nc(N)nc2nc[nH]c12)C(=O)O (stereo not drawn),T/C,"dose: 40.0 mg/kg/injection, schedule: Q01DX011 (ip), vehicle: carboxymethylcellulose (CMC)",77 % of control
same,T/C,"dose: 80.0 mg/kg/injection, schedule: Q01DX011 (ip), vehicle: carboxymethylcellulose (CMC)",45 % of control
same,T/C,"dose: 160.0 mg/kg/injection, schedule: Q01DX011 (ip), vehicle: carboxymethylcellulose (CMC)",5 % of control
C[C@]12C=CC(=O)C=C1CC[C@@H]1[C@@H]2CC[C@]2(C)OC(=O)CC[C@@H]12,T/C,"dose: 250.0 mg/kg/injection, schedule: Q01DX011 (sc), vehicle: steriod suspending solution",115 % of control
same,T/C,"dose: 500.0 mg/kg/injection, schedule: Q01DX011 (sc), vehicle: steriod suspending solution",120 % of control
same,T/C,"dose: 1000.0 mg/kg/injection, schedule: Q01DX011 (sc), vehicle: steriod suspending solution",112 % of control
O=[N+]([O-])c1ccc(O)c([N+](=O)[O-])c1,T/C,"dose: 3.87 mg/kg/injection, schedule: Q01DX011 (ip), vehicle: carboxymethylcellulose (CMC)",101 % of control
same,T/C,"dose: 6.75 mg/kg/injection, schedule: Q01DX011 (ip), vehicle: carboxymethylcellulose (CMC)",102 % of control
same,T/C,"dose: 13.5 mg/kg/injection, schedule: Q01DX011 (ip), vehicle: carboxymethylcellulose (CMC)",103 % of control
same,T/C,"dose: 27.0 mg/kg/injection, schedule: Q01DX011 (ip), vehicle: carboxymethylcellulose (CMC)",123 % of control
C1OC1C1CO1 (stereo not drawn),T/C,"dose: 4.5 mg/kg/injection, schedule: Q01DX011 (ip), vehicle: carboxymethylcellulose (CMC)",77 % of control
same,T/C,"dose: 9.0 mg/kg/injection, schedule: Q01DX011 (ip), vehicle: carboxymethylcellulose (CMC)",107 % of control and 115 % of control
same,T/C,"dose: 18.0 mg/kg/injection, schedule: Q01DX011 (ip), vehicle: carboxymethylcellulose (CMC)",70 % of control and 83 % of control
C=CC(=O)NCNC(=O)C=C,T/C,"dose: 15.0 mg/kg/injection, schedule: Q01DX011 (ip), vehicle: saline",89 % of control
same,T/C,"dose: 30.0 mg/kg/injection, schedule: Q01DX011 (ip), vehicle: saline",84 % of control
same,T/C,"dose: 60.0 mg/kg/injection, schedule: Q01DX011 (ip), vehicle: saline",70 % of control and 51 % of control
same,T/C,"dose: 120.0 mg/kg/injection, schedule: Q01DX011 (ip), vehicle: saline",16 % of control and 39 % of control
CC(=O)OCC(=O)[C@@]1(O)CC[C@H]2[C@@H]3CCC4=CC(=O)CC[C@]4(C)[C@H]3[C@@H](O)C[C@@]21C,T/C,"dose: 2.25 mg/kg/injection, schedule: Q01DX011 (sc), vehicle: steriod suspending solution",267 % of control
same,T/C,"dose: 8.5 mg/kg/injection, schedule: Q01DX011 (sc), vehicle: steriod suspending solution",73 % of control
same,T/C,"dose: 9.0 mg/kg/injection, schedule: Q01DX011 (sc), vehicle: steriod suspending solution",88 % of control
same,T/C,"dose: 17.0 mg/kg/injection, schedule: Q01DX011 (sc), vehicle: steriod suspending solution",105 % of control
same,T/C,"dose: 30.0 mg/kg/injection, schedule: Q01DX011 (sc), vehicle: steriod suspending solution",44 % of control
same,T/C,"dose: 60.0 mg/kg/injection, schedule: Q01DX011 (sc), vehicle: steriod suspending solution",32 % of control
same,T/C,"dose: 68.0 mg/kg/injection, schedule: Q01DX011 (sc), vehicle: steriod suspending solution",60 % of control
same,T/C,"dose: 90.0 mg/kg/injection, schedule: Q01DX011 (sc), vehicle: steriod suspending solution",29 % of control
CCN(CC)CCN1C(=O)c2cccc3cccc(c23)C1=O,T/C,"dose: 25.0 mg/kg/injection, schedule: Q01DX011 (ip), vehicle: saline",106 % of control
same,T/C,"dose: 50.0 mg/kg/injection, schedule: Q01DX011 (ip), vehicle: saline",72 % of control
same,T/C,"dose: 100.0 mg/kg/injection, schedule: Q01DX011 (ip), vehicle: saline",85 % of control
Clc1ncnc2nc[nH]c12,T/C,[1],71 % of control
same,T/C,[2],47 % of control
same,T/C,"dose: 200.0 mg/kg/injection, schedule: Q01DX011 (ip), vehicle: carboxymethylcellulose (CMC)",18 % of control
O=C(Nc1ccc(C2=NCCCN2)cc1)c1ccc(NC(=O)c2ccc(C3=NCCCN3)cc2)cc1,T/C,[3],49 % of control
same,T/C,[4],9 % of control
same,T/C,[5],1 % of control
CCN(CC)CCNc1ccc(C)c2sc3ccccc3c(=O)c12,T/C,[6],184 % of control
same,T/C,[4],199 % of control
same,T/C,"dose: 6.25 mg/kg/injection, schedule: Q01DX011 (ip), vehicle: carboxymethylcellulose (CMC)",37 % of control
same,T/C,[5],174 % of control
same,T/C,"dose: 8.1 mg/kg/injection, schedule: Q01DX011 (ip), vehicle: carboxymethylcellulose (CMC)",199 % of control
same,T/C,"dose: 12.5 mg/kg/injection, schedule: Q01DX011 (ip), vehicle: carboxymethylcellulose (CMC)",35 % of control
same,T/C,"dose: 16.0 mg/kg/injection, schedule: Q01DX011 (ip), vehicle: carboxymethylcellulose (CMC)",274 % of control
same,T/C,"dose: 16.2 mg/kg/injection, schedule: Q01DX011 (ip), vehicle: carboxymethylcellulose (CMC)",179 % of control
same,T/C,"dose: 26.0 mg/kg/injection, schedule: Q01DX011 (ip), vehicle: carboxymethylcellulose (CMC)",111 % of control
same,T/C,"dose: 32.0 mg/kg/injection, schedule: Q01DX011 (ip), vehicle: carboxymethylcellulose (CMC)",66 % of control
same,T/C,"dose: 33.0 mg/kg/injection, schedule: Q01DX011 (ip), vehicle: carboxymethylcellulose (CMC)",69 % of control
same,T/C,[7],72 % of control
same,T/C,[1],31 % of control and 32 % of control
same,T/C,[8],3 % of control and 7 % of control
CCCCCCCCCCCCn1c(C)nc2ccccc21,T/C,[6],114 % of control
same,T/C,"dose: 2.0 mg/kg/injection, schedule: Q01DX011 (ip), vehicle: carboxymethylcellulose (CMC)",75 % of control
same,T/C,[3],97 % of control
same,T/C,[5],76 % of control
CCn1cnc2c(SC)nc(N)nc21,T/C,"dose: 25.0 mg/kg/injection, schedule: Q01DX011 (ip), vehicle: carboxymethylcellulose (CMC)",83 % of control
same,T/C,[1],73 % of control
same,T/C,[2],23 % of control
CCC(=O)O[C@H]1CC[C@H]2[C@@H]3CC[C@H]4CC(=O)[C@H](C)C[C@]4(C)[C@H]3CC[C@]12C,T/C,"dose: 42.0 mg/kg/injection, schedule: Q01DX011 (sc), vehicle: steriod suspending solution",212 % of control
same,T/C,"dose: 44.1 mg/kg/injection, schedule: Q01DX011 (sc), vehicle: steriod suspending solution",173 % of control
same,T/C,"dose: 83.0 mg/kg/injection, schedule: Q01DX011 (sc), vehicle: steriod suspending solution",227 % of control
same,T/C,"dose: 88.2 mg/kg/injection, schedule: Q01DX011 (sc), vehicle: steriod suspending solution",184 % of control
same,T/C,"dose: 176.0 mg/kg/injection, schedule: Q01DX011 (sc), vehicle: steriod suspending solution",225 % of control
same,T/C,"dose: 353.0 mg/kg/injection, schedule: Q01DX011 (sc), vehicle: steriod suspending solution",168 % of control and 213 % of control
CC(C)(c1ccccc1)c1ccc(O)cc1,T/C,[9],94 % of control
same,T/C,[8],107 % of control
same,T/C,"dose: 150.0 mg/kg/injection, schedule: Q01DX011 (ip), vehicle: carboxymethylcellulose (CMC)",87 % of control
NC(C=O)C(O)C(O)C(O)CO (stereo not drawn),T/C,"dose: 125.0 mg/kg/injection, schedule: Q01DX011 (ip), vehicle: carboxymethylcellulose (CMC)",102 % of control
same,T/C,"dose: 250.0 mg/kg/injection, schedule: Q01DX011 (ip), vehicle: carboxymethylcellulose (CMC)",168 % of control
same,T/C,"dose: 1000.0 mg/kg/injection, schedule: Q01DX011 (ip), vehicle: carboxymethylcellulose (CMC)",115 % of control
O=C1C(NC(=O)C2CCCCC2)=C(N2CC2)C(=O)C(NC(=O)C2CCCCC2)=C1N1CC1,T/C,"dose: 22.0 mg/kg/injection, schedule: Q01DX011 (ip), vehicle: carboxymethylcellulose (CMC)",106 % of control
same,T/C,[7],82 % of control
same,T/C,"dose: 87.0 mg/kg/injection, schedule: Q01DX011 (ip), vehicle: carboxymethylcellulose (CMC)",62 % of control
same,T/C,"dose: 350.0 mg/kg/injection, schedule: Q01DX011 (ip), vehicle: carboxymethylcellulose (CMC)",61 % of control
NNc1nncc2ccccc12,T/C,[9],108 % of control
same,T/C,[8],66 % of control
